{"source": "PubChem BioAssay (NCI)", "test_in_all_cases": "NCI-60 cell line screen, 48 h", "key": {"786-0 renal": {"tested_on": "786-0 renal"}, "A549 NSCLC": {"tested_on": "A549 NSCLC"}, "ACHN renal": {"tested_on": "ACHN renal"}, "BT-549 breast": {"tested_on": "BT-549 breast"}, "CAKI-1 renal": {"tested_on": "CAKI-1 renal"}, "CCRF-CEM leukemia": {"tested_on": "CCRF-CEM leukemia"}, "COLO 205 colon": {"tested_on": "COLO 205 colon"}, "DU-145 prostate": {"tested_on": "DU-145 prostate"}, "EKVX NSCLC": {"tested_on": "EKVX NSCLC"}, "HCC-2998 colon": {"tested_on": "HCC-2998 colon"}, "HCT-116 colon": {"tested_on": "HCT-116 colon"}, "HCT-15 colon": {"tested_on": "HCT-15 colon"}, "HL-60(TB) leukemia": {"tested_on": "HL-60(TB) leukemia"}, "HOP-62 NSCLC": {"tested_on": "HOP-62 NSCLC"}, "HOP-92 NSCLC": {"tested_on": "HOP-92 NSCLC"}, "HS 578T breast": {"tested_on": "HS 578T breast"}, "HT29 colon": {"tested_on": "HT29 colon"}, "IGROV1 ovarian": {"tested_on": "IGROV1 ovarian"}, "K-562 leukemia": {"tested_on": "K-562 leukemia"}, "LOX IMVI melanoma": {"tested_on": "LOX IMVI melanoma"}, "M14 melanoma": {"tested_on": "M14 melanoma"}, "MALME-3M melanoma": {"tested_on": "MALME-3M melanoma"}, "MCF7 breast": {"tested_on": "MCF7 breast"}, "MDA-MB-231 breast": {"tested_on": "MDA-MB-231 breast"}, "MDA-MB-435": {"tested_on": "MDA-MB-435"}, "MOLT-4 leukemia": {"tested_on": "MOLT-4 leukemia"}, "NCI-H226 lung": {"tested_on": "NCI-H226 lung"}, "NCI-H23 lung": {"tested_on": "NCI-H23 lung"}, "NCI-H460 lung": {"tested_on": "NCI-H460 lung"}, "NCI-H522 lung": {"tested_on": "NCI-H522 lung"}, "NCI/ADR-RES ovarian": {"tested_on": "NCI/ADR-RES ovarian"}, "OVCAR-3 ovarian": {"tested_on": "OVCAR-3 ovarian"}, "OVCAR-4 ovarian": {"tested_on": "OVCAR-4 ovarian"}, "OVCAR-5 ovarian": {"tested_on": "OVCAR-5 ovarian"}, "OVCAR-8 ovarian": {"tested_on": "OVCAR-8 ovarian"}, "PC-3 prostate": {"tested_on": "PC-3 prostate"}, "RPMI-8226 leukemia": {"tested_on": "RPMI-8226 leukemia"}, "SF-268 CNS": {"tested_on": "SF-268 CNS"}, "SF-295 CNS": {"tested_on": "SF-295 CNS"}, "SF-539 CNS": {"tested_on": "SF-539 CNS"}, "SK-MEL-2 melanoma": {"tested_on": "SK-MEL-2 melanoma"}, "SK-MEL-28 melanoma": {"tested_on": "SK-MEL-28 melanoma"}, "SK-OV-3 ovarian": {"tested_on": "SK-OV-3 ovarian"}, "SN12C renal": {"tested_on": "SN12C renal"}, "SNB-19 CNS": {"tested_on": "SNB-19 CNS"}, "SNB-75 CNS": {"tested_on": "SNB-75 CNS"}, "SR leukemia": {"tested_on": "SR leukemia"}, "SW-620 colon": {"tested_on": "SW-620 colon"}, "TK-10 renal": {"tested_on": "TK-10 renal"}, "U251 CNS": {"tested_on": "U251 CNS"}, "UACC-257 melanoma": {"tested_on": "UACC-257 melanoma"}, "UACC-62 melanoma": {"tested_on": "UACC-62 melanoma"}, "UO-31 renal": {"tested_on": "UO-31 renal"}}, "note": "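How tested: cells in 96-well plates exposed to compound for 48 hours at five concentrations. TGI marks complete inhibition of growth.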"}
{"smiles": "O=C1c2ccccc2-c2nc(-c3cccnc3)cc3c2c1nc1ccccc13", "values": [{"measurement": "TGI", "setting": "786-0 renal", "value": "> 100", "unit": "µM"}, {"measurement": "TGI", "setting": "A549 NSCLC", "value": "> 100", "unit": "µM"}, {"measurement": "TGI", "setting": "ACHN renal", "value": "> 100", "unit": "µM"}, {"measurement": "TGI", "setting": "BT-549 breast", "value": "> 100", "unit": "µM"}, {"measurement": "TGI", "setting": "CAKI-1 renal", "value": "> 100", "unit": "µM"}, {"measurement": "TGI", "setting": "CCRF-CEM leukemia", "value": "> 100", "unit": "µM"}, {"measurement": "TGI", "setting": "COLO 205 colon", "value": "> 100", "unit": "µM"}, {"measurement": "TGI", "setting": "DU-145 prostate", "value": "> 100", "unit": "µM"}, {"measurement": "TGI", "setting": "EKVX NSCLC", "value": "> 100", "unit": "µM"}, {"measurement": "TGI", "setting": "HCC-2998 colon", "value": "> 100", "unit": "µM"}, {"measurement": "TGI", "setting": "HCT-116 colon", "value": "> 100", "unit": "µM"}, {"measurement": "TGI", "setting": "HCT-15 colon", "value": "> 100", "unit": "µM"}, {"measurement": "TGI", "setting": "HL-60(TB) leukemia", "value": "> 100", "unit": "µM"}, {"measurement": "TGI", "setting": "HOP-62 NSCLC", "value": "> 100", "unit": "µM"}, {"measurement": "TGI", "setting": "HOP-92 NSCLC", "value": "> 100", "unit": "µM"}, {"measurement": "TGI", "setting": "HS 578T breast", "value": "> 100", "unit": "µM"}, {"measurement": "TGI", "setting": "HT29 colon", "value": "> 100", "unit": "µM"}, {"measurement": "TGI", "setting": "IGROV1 ovarian", "value": "> 100", "unit": "µM"}, {"measurement": "TGI", "setting": "K-562 leukemia", "value": "> 100", "unit": "µM"}, {"measurement": "TGI", "setting": "LOX IMVI melanoma", "value": "> 100", "unit": "µM"}, {"measurement": "TGI", "setting": "M14 melanoma", "value": "> 100", "unit": "µM"}, {"measurement": "TGI", "setting": "MALME-3M melanoma", "value": "> 100", "unit": "µM"}, {"measurement": "TGI", "setting": "MCF7 breast", "value": "> 100", "unit": "µM"}, {"measurement": "TGI", "setting": "MDA-MB-231 breast", "value": "> 100", "unit": "µM"}, {"measurement": "TGI", "setting": "MDA-MB-435", "value": 34.7, "unit": "µM"}, {"measurement": "TGI", "setting": "MOLT-4 leukemia", "value": "> 100", "unit": "µM"}, {"measurement": "TGI", "setting": "NCI-H226 lung", "value": "> 100", "unit": "µM"}, {"measurement": "TGI", "setting": "NCI-H23 lung", "value": "> 100", "unit": "µM"}, {"measurement": "TGI", "setting": "NCI-H460 lung", "value": "> 100", "unit": "µM"}, {"measurement": "TGI", "setting": "NCI-H522 lung", "value": "> 100", "unit": "µM"}, {"measurement": "TGI", "setting": "NCI/ADR-RES ovarian", "value": "> 100", "unit": "µM"}, {"measurement": "TGI", "setting": "OVCAR-3 ovarian", "value": "> 100", "unit": "µM"}, {"measurement": "TGI", "setting": "OVCAR-4 ovarian", "value": "> 100", "unit": "µM"}, {"measurement": "TGI", "setting": "OVCAR-5 ovarian", "value": "> 100", "unit": "µM"}, {"measurement": "TGI", "setting": "OVCAR-8 ovarian", "value": "> 100", "unit": "µM"}, {"measurement": "TGI", "setting": "PC-3 prostate", "value": "> 100", "unit": "µM"}, {"measurement": "TGI", "setting": "RPMI-8226 leukemia", "value": "> 100", "unit": "µM"}, {"measurement": "TGI", "setting": "SF-268 CNS", "value": "> 100", "unit": "µM"}, {"measurement": "TGI", "setting": "SF-295 CNS", "value": "> 100", "unit": "µM"}, {"measurement": "TGI", "setting": "SF-539 CNS", "value": "> 100", "unit": "µM"}, {"measurement": "TGI", "setting": "SK-MEL-2 melanoma", "value": "> 100", "unit": "µM"}, {"measurement": "TGI", "setting": "SK-MEL-28 melanoma", "value": "> 100", "unit": "µM"}, {"measurement": "TGI", "setting": "SK-OV-3 ovarian", "value": "> 100", "unit": "µM"}, {"measurement": "TGI", "setting": "SN12C renal", "value": "> 100", "unit": "µM"}, {"measurement": "TGI", "setting": "SNB-19 CNS", "value": "> 100", "unit": "µM"}, {"measurement": "TGI", "setting": "SNB-75 CNS", "value": "> 100", "unit": "µM"}, {"measurement": "TGI", "setting": "SR leukemia", "value": "> 100", "unit": "µM"}, {"measurement": "TGI", "setting": "SW-620 colon", "value": "> 100", "unit": "µM"}, {"measurement": "TGI", "setting": "TK-10 renal", "value": "> 100", "unit": "µM"}, {"measurement": "TGI", "setting": "U251 CNS", "value": "> 100", "unit": "µM"}, {"measurement": "TGI", "setting": "UACC-257 melanoma", "value": "> 100", "unit": "µM"}, {"measurement": "TGI", "setting": "UACC-62 melanoma", "value": "> 100", "unit": "µM"}, {"measurement": "TGI", "setting": "UO-31 renal", "value": "> 100", "unit": "µM"}]}
